Patent publication US4999436A, “Aryl-substituted thiophene 3-ols, derivatives and analogs useful as lipoxgenase inhibitors” (Merck & Co., Inc., priority 1989, dated 1991)
Values joined by “and” are separate entries in the source; they are usually repeats but may differ in a detail not shown here. Equal values may be shown once.

Biological target: T1, 5-lipoxygenase (Rattus norvegicus, UniProt P12527)
T1 construct: endogenous in cells; host or cells: casein-elicited peritoneal polymorphonuclear leukocytes of male Sprague-Dawley rats
T1 sequence (P12527 1-673): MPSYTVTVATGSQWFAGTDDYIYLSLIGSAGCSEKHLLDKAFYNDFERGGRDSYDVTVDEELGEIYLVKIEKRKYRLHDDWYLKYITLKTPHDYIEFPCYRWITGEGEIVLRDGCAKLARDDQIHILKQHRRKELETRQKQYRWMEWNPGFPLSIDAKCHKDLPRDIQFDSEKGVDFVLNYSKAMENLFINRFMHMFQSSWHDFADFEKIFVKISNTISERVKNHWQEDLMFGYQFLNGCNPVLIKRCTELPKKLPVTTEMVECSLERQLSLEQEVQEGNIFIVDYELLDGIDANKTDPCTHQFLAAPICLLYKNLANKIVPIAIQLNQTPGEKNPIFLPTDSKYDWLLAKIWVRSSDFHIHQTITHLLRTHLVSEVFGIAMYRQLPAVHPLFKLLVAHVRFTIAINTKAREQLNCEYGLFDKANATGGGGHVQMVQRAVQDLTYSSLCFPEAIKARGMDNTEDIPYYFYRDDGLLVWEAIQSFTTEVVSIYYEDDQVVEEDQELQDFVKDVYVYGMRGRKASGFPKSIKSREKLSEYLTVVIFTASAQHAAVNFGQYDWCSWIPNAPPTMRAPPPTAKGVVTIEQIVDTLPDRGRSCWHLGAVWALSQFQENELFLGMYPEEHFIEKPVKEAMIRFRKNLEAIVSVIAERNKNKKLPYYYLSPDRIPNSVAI
Experiment: PMN5LO assay: inhibition of LTB4 production in A23187-stimulated rat peritoneal PMN (RIA)
Assay type: cell-based
Details: for inhibition at 0.037 µg/mL: 0.037 μg/ml; for inhibition at 0.11 µg/mL: 0.11 μg/ml; for inhibition at 0.33 µg/mL: 0.33 μg/ml; for IC50: estimated concentration required for 50% inhibition
Description: Two screening methods were employed for the purposes of evaluating the biological activities of the compounds of the present invention. The PMN5LO assay is a direct measure of the capacity to inhibit 5-lipoxygenase. The second protocol, RSVM-CO, is a method of determining inhibition of cyclooxygenase enzyme activity and as such it serves as a negative control.
Elicition of Rat Peritoneal polymorphonuclear leukoytes (PMN)
Male Sprague-Dawley rats (about 350 grams) were injected intraperitoneally the day before use with 8 ml of 12% sodium caseinate. The next day the animals were killed by CO2 asphyxiation and the peritoneal cavity lavaged twice with 20 ml of Hanks balanced salts containing 15 mM HEPES (pH 7.4), 1.4 mM Ca^++ and 0.7 mM Mg^++ (Hepes-Hanks). The suspensions were filtered through plastic mesh and centrifuged at […] for 5 minutes. The cells were resuspended in 50 ml Hepes-Hanks and recentrifuged. The PMN pellets were combined and suspended at 1.25×10^7 cells/ml.
The cell suspension was then diluted 1:10, preincubated 5 minutes at 37° C. and distributed in 200 μl aliquots in the wells of 96 well microtiter plates. The wells had previously received samples of the compounds of the present invention, controls, etc., in 25 μl of 0.001% fatty acidfree BSA in Hepes-Hanks. The plates were incubated 2 minutes at 37° C. and then the cells were stimulated to produce LTB4 by the addition of 25 μl of 100 μM calcium ionophore, designated A23187. After 4 minutes at 37° C. the plates were frozen in dry ice.
Radioimmunoassay (RIA) of LTB4
The frozen plates were thawed to 4° C. and 25 μl aliquots removed to V well plates. Antibody to LTB4 (50 μl) was added and, after 15 minutes at room temperature, 50 μl of ^3 H-LTB4 was added and the plates were stored overnight at 4° C. to allow equilibration. The next day the "free" 3H-LTB4 was removed by adsorption to dextran coated charcoal [90 μl per well of a 4% charcoal suspension with 0.25% Dextran T-70 in 10 mM potassium phosphate (pH 7.3) containing lmM EDTA and 0.25 mM thimerasol] during a 10 minute ice temperature incubation. The charcoal was removed by a 10 minute centrifugation at 200 sg. Aliquots of the supernatant were counted in a Packard 460, analyzed in a Masscomp computer and the data drawn up as % inhibition of LTB4 production.

| SMILES | inhibition at 1 µg/mL (1 μg/ml) [%] | inhibition at 0.012 µg/mL (0.012 μg/ml) [%] | inhibition at 0.037 µg/mL [%] | inhibition at 0.11 µg/mL [%] | inhibition at 0.33 µg/mL [%] | PMN5LO % inhibition (0.012 μg/ml) [%] | inhibition at 0.37 µg/mL (0.37 μg/ml (so in the source)) [%] | IC50 [µM] | PMN5LO % inhibition (1 μg/ml) |
| --- | --- | --- | --- | --- | --- | --- | --- | --- | --- |
| CC(=O)Oc1c(C)sc(-c2ccccc2)c1-c1ccccc1 [Compound 9] | 13 |  |  |  |  |  |  |  |  |
| Oc1cc(-c2ccccc2)sc1-c1cccnc1 [Compound 22] | 87 | 14 | 19 | 45 | 81 |  |  |  |  |
| CCC(=O)Oc1cc(-c2cccc(C(F)(F)F)c2)sc1-c1ccccc1 [Compound 6] | 22 |  |  |  |  |  |  |  |  |
| COc1ccc(-c2sc3c(c2OC(C)=O)Cc2ccccc2-3)cc1 |  |  |  |  |  | 0 | 42 | 2.5 |  |
| CC(=O)Oc1csc(-c2ccccc2)c1 [Compound 1] | 18 | 5 | 0 | 1 | 19 |  |  |  |  |
| c1ccc(-c2ccc(-c3ccccc3)s2)cc1 | 38 | 13 | 0 | 15 | 23 |  |  | 4 |  |
| COc1ccc(-c2sc3c(c2OC(C)=O)CCCc2ccccc2-3)cc1 [Compound 20] |  |  |  |  |  |  |  | > 3 |  |
| Cc1ccccc1-c1cc(O)c(-c2ccccc2)s1 [Compound 18, 3-Hydroxy-5-(2-methylphenyl)-2-phenylthiophene] | 96 | 20 | 46 | 96 | 100 |  |  | 0.12 |  |
| CC(=O)Oc1cc(-c2ccccc2)oc1-c1ccccc1 |  | 25 | 6 | 36 | 53 |  |  |  | 33% and 66% |
| CC(=O)Oc1cc(-c2ccccc2)sc1-c1ccccc1C | 79 | 15 | 15 | 17 | 34 |  |  |  |  |
| CC(=O)Oc1cc(-c2cccc(C(F)(F)F)c2)sc1-c1ccccc1 [Compound 5] | 38 |  |  |  |  |  |  |  |  |
| CC(=O)Oc1c(-c2ccccc2)sc(-c2ccccc2)c1-c1ccccc1 [Compound 8] |  |  |  |  |  |  |  |  | 18% |
| COc1cc(-c2ccccc2)sc1-c1ccccc1 [Compound 19] | 0 | 0 | 0 | 0 | 0 |  |  |  |  |
